Reference: patent publication US6160004A, “C-10 carbon-substituted artemisinin-like trioxane compounds having antimalarial, antiproliferative and antitumor activities” (priority 1998, dated 2000)
In brackets after ≈: the same amount, converted by molar mass. Like-named read-outs stand apart in the source and are kept apart here.

Legend:
[1] = test system: murine keratinocyte cell line PE; assay: Growth inhibition of murine keratinocytes (MTT); type: cell-based, murine (SENCAR mice); conditions: 100 nanomolar
Experimental: To determine the inhibitory effect of the compositions of the present invention on cell proliferation, screening assays were performed on a murine keratinocyte cell line PE. Cell line PE was chosen for its particular sensitivity to the induction of ornithine decarboxylase (ODC) activity by the extensively characterized tumor promoter TPA. […] PE cell culture medium consisted of Eagle's minimal essential medium without calcium chloride (Whittaker Bioproducts, Walkersville, Mass.) supplemented with 8% chelexed fetal calf serum and 1% antibiotic-antimycotic (Gibco BRL) and the addition of CaCl2 to 0.05 mM Ca^++.
MTT [3-(4,5-dimethylthiazol-2-yl)-2,5-diphenyltetraxolium bromide] was purchased from Sigma Chemical Co. (St. Louis, Mo.), and TPA was supplied by L.C. Services (Woburn, Mass.). L-[^14 C]omithine (56 μCi/mol) was from Amersham/Searle Corp. (Arlington Heights, Ill.). Chemical solvents used in all assays of biological activity were of the highest grade commercially available.
Growth Inhibition. Growth curves, shown in FIGS. 1-5, for PE cells treated with calcitriol and the C-10 carbon-substituted dimers 38, 39, 43, 44, 45, 47 and 48, and monomer 27 generated by assay for the reduction of the tetrazolium-based compound MTT, see Charmichael, et al., Cancer Res., 47:936-942 (1987). […] PE cells were seeded at a density of 5,000 cells/well in 50 μL of medium into 96-well microtiter plates. Twelve hours later, the medium was removed, and cells were treated with 100 μL of fresh medium into which the appropriate amount of calcitriol or analog dissolved in dimethyl sulfoxide (DMSO) had been added, with the concentration of DMSO held constant at 0.1%. […] At 24-hour intervals following the initial treatment of the cells with compounds, 0.1 mg (50 μL of a 2 mg/mL solution) of MTT was added to each well. After 4 hours, the MTT was removed and DMSO added to dissolve the blue formazan dye. Using a microtiter plate reader, the A505 was then determined and cell number calculated from blank-subtracted absorbance values.

[2] = test system: chloroquine-sensitive P. falciparum (NF54); assay: In vitro antimalarial activity ([3H]hypoxanthine incorporation); type: cell-based
[3] = Water solubility at pH 7.4; type: physicochemical; conditions: pH 7.4, water
Experimental: Often, solubility in water is a desirable feature of a new drug candidate. Since organic compounds bearing one or more carboxylic acid groups or phenolic groups are usually water soluble at physiological pH, we have prepared a series of 10-carbon-substituted trioxane carboxylic acids via alkene oxidation and ester saponification. Also, bisphenol (34) was prepared by hydrolysis of the corresponding bis-silyl ether.

P. berghei = conditions: cited from earlier work
[4] = test system: Ehrlich ascites tumor (EAT) cells; conditions: cited from earlier work
[5] = In vivo acute toxicity testing; conditions: preliminary
malaria = assay: In vivo antimalarial activity; parameters: species or system rodents
Stability (hydrolysis) = type: physicochemical
[6] = Plasmodium falciparum, chloroquine-sensitive P. falciparum NF54, in vitro
[7] = sc; read-out: ED50 subcutaneous
[8] = sc; read-out: ED90 subcutaneous

CC1CCC2C(C)C(c3ccc(C4OC5OC6(C)CCC7C(C)CCC(C4C)C57OO6)o3)OC3OC4(C)CCC1C32OO4 (stereo not drawn) [Dimer 47]
antiproliferative activity relative to calcitriol [1]: at least as antiproliferative as calcitriol

C[C@H]1[C@H](c2cccn2Cc2ccccc2)O[C@@H]2O[C@@]3(C)CC[C@H]4[C@H](C)CC[C@@H]1[C@@]24OO3 [Monomer 16b]
IC50 [2, 6]: 16 nM

CCc1ccc([C@@H]2O[C@@H]3O[C@@]4(C)CC[C@H]5[C@H](C)CC[C@@H]([C@H]2C)[C@@]35OO4)o1 [Monomer 17c]
IC50 [2, 6]: 8.6 nM

C[C@H]1[C@H](c2ccc(O)cc2O)O[C@@H]2O[C@@]3(C)CC[C@H]4[C@H](C)CC[C@@H]1[C@@]24OO3 [Monomer 13d]
solubility [3]: < 3 mM

CC1CCC2C(C)C(c3cn(C)c4ccccc34)OC3OC4(C)CCC1C32OO4 (stereo not drawn) [Monomer 19]
IC50 [2, 6]: 4 nM

C[C@H]1[C@H](c2ccc(C(C)(C)C)o2)O[C@@H]2O[C@@]3(C)CC[C@H]4[C@H](C)CC[C@@H]1[C@@]24OO3 [Monomer 17d]
IC50 [2, 6]: 10 nM

COc1ccc2cc(C3OC4OC5(C)CCC6C(C)CCC(C3C)C46OO5)c(OC)cc2c1 (stereo not drawn) [Monomer 15, 10α-(2',7'-dimethoxynaphth-3'-yl)deoxoartemisinin]
IC50 [2, 6]: 9 nM

CC1CCC2C(C)C(c3ccc(C(c4ccccc4)c4ccc(C5OC6OC7(C)CCC8C(C)CCC(C5C)C68OO7)n4C)n3C)OC3OC4(C)CCC1C32OO4 (stereo not drawn) [Dimer 48]
antiproliferative activity relative to calcitriol [1]: at least as antiproliferative as calcitriol

COc1ccc([C@@H]2O[C@@H]3O[C@@]4(C)CC[C@H]5[C@H](C)CC[C@@H]([C@H]2C)[C@@]35OO4)c(OC)c1 [Monomer 13]
IC50 ([2]; survey data (preliminary), P. falciparum NF54): 8.9 nM

C=CCOc1ccc([C@@H]2O[C@@H]3O[C@@]4(C)CC[C@H]5[C@H](C)CC[C@@H]([C@H]2C)[C@@]35OO4)c(OCC=C)c1 [Monomer 13b]
IC50 [2, 6]: 6.6 nM

CC1=CO[C@@H]2O[C@@]3(C)CC[C@H]4[C@H](C)CC[C@@H]1[C@@]24OO3 [olefinic compound III]
activity against P. berghei-infected mice (P. berghei): inactive

CC1CCC2C(C)C(C#Cc3ccc(C#CC4OC5OC6(C)CCC7C(C)CCC(C4C)C57OO6)cc3)OC3OC4(C)CCC1C32OO4 (stereo not drawn) [Dimer 45, C-10 p-Diethynylbenzene 10-deoxoartemisinin Dimer]
antiproliferative activity relative to calcitriol [1]: at least as antiproliferative as calcitriol

C[C@@H]1CC[C@H]2[C@@H](C)C(OC3O[C@@H]4O[C@@]5(C)CC[C@H]6[C@H](C)CC[C@@H]([C@H]3C)[C@@]46OO5)O[C@@H]3O[C@@]4(C)CC[C@@H]1[C@]32OO4 (stereo partly drawn) [II-7]
SD90 (P. berghei; P. berghei-infected mice, parasitemia 90 percent suppressed): 10 mg/kg | in vivo potency relative to artemisinin (P. berghei; P. berghei-infected mice): less potent than artemisinin | IC50 ([4]; MTT, growth inhibition): 1400 nM | cytotoxicity relative to artemisinin (times more cytotoxic) [4]: approximately twenty-two | cytotoxicity relative to dihydroartemisinin (times more cytotoxic) [4]: sixty

CCOC(=O)Cn1cccc1[C@@H]1O[C@@H]2O[C@@]3(C)CC[C@H]4[C@H](C)CC[C@@H]([C@H]1C)[C@@]24OO3 [Monomer 16d, 10α-(1'-(Ethoxycarbonylmethyl)pyrrol-2'-yl)-10-deoxoartemisinin]
IC50 [2, 6]: 9.1 nM

CC1CCC2C(C)C(c3ccco3)OC3OC4(C)CCC1C32OO4 (stereo not drawn) [Monomer 17a, 10α-(2'-Furyl)-10-deoxoartemisinin]
in vitro antimalarial potency relative to artemisinin ([2]; P. falciparum NF54): more potent than artemisinin | IC50 [2, 6]: 1.4 nM | in vivo acute toxicity testing [5]: relative safety | ED50 (malaria; po; read-out: ED50 oral): 9.5 mg/kg | ED90 (malaria; po; read-out: ED90 oral): 24 mg/kg | ED50 (malaria; [7]): 1.2 mg/kg | ED90 (malaria; [8]): 2 mg/kg | stability (Stability (hydrolysis)): Hydrolytically stable

Cc1ccc([C@@H]2O[C@@H]3O[C@@]4(C)CC[C@H]5[C@H](C)CC[C@@H]([C@H]2C)[C@@]35OO4)o1 [Monomer 17b]
IC50 [2, 6]: 5.2 nM | in vivo acute toxicity testing [5]: relative safety | ED50 (malaria; po; read-out: ED50 oral): 15.5 mg/kg | ED90 (malaria; po; read-out: ED90 oral): 43 mg/kg | ED50 (malaria; [7]): 0.9 mg/kg | ED90 (malaria; [8]): 2 mg/kg | stability (Stability (hydrolysis)): Hydrolytically stable

CC1CCC2C(C)C(c3cccn3C)OC3OC4(C)CCC1C32OO4 (stereo not drawn) [Monomer 16a, 10α-(N-methylpyrrol-2'-yl)deoxoartemisinin]
in vitro antimalarial potency relative to artemisinin ([2]; P. falciparum NF54): more potent than artemisinin | IC50 [2, 6]: 4.6 nM | ED50 (malaria; po; read-out: ED50 oral): 4.5 mg/kg | ED90 (malaria; po; read-out: ED90 oral): 8.5 mg/kg | ED50 (malaria; [7]): 0.7 mg/kg | ED90 (malaria; [8]): 1.2 mg/kg | stability (Stability (hydrolysis)): Hydrolytically stable

COc1cc(OC)c(C2OC3OC4(C)CCC5C(C)CCC(C2C)C35OO4)cc1C1OC2OC3(C)CCC4C(C)CCC(C1C)C24OO3 (stereo not drawn) [Dimer 43]
antiproliferative activity relative to calcitriol [1]: at least as antiproliferative as calcitriol

CC1CCC2C(C)C(C#Cc3cccc(C#CC4OC5OC6(C)CCC7C(C)CCC(C4C)C57OO6)c3)OC3OC4(C)CCC1C32OO4 (stereo not drawn) [Dimer 44]
antiproliferative activity relative to calcitriol [1]: at least as antiproliferative as calcitriol

CC1CCC2C(C)C(C(=O)O)OC3OC4(C)CCC1C32OO4 (stereo not drawn) [Monomer 33]
solubility [3]: 30 mM (≈ 9370 µg/mL)

CO[C@H]1O[C@@H]2O[C@@]3(C)CC[C@H]4[C@H](C)CC[C@@H]([C@H]1C)[C@@]24OO3 [Artemether, reference compound]
in vitro antimalarial potency relative to artemisinin ([2]; P. falciparum NF54): more potent than artemisinin

C[C@H]1[C@H](c2cccs2)O[C@@H]2O[C@@]3(C)CC[C@H]4[C@H](C)CC[C@@H]1[C@@]24OO3 [Monomer 18]
IC50 [2, 6]: 5.1 nM

COc1cc(OC)c([C@@H]2O[C@@H]3O[C@@]4(C)CC[C@H]5[C@H](C)CC[C@@H]([C@H]2C)[C@@]35OO4)c(OC)c1 [Monomer 14]
IC50 [2, 6]: 7.8 nM

CC1CCC2C(C)C(c3cccn3CC(=O)O)OC3OC4(C)CCC1C32OO4 (stereo not drawn) [Monomer 16e]
solubility [3]: 10 mM (≈ 3910 µg/mL)

COc1ccc(C2OC3OC4(C)CCC5C(C)CCC(C2C)C35OO4)c(OC)c1 (stereo not drawn) [Monomer 13a, 10α-(1',3'-Dimethoxyphenyl)deoxoartemisininin]
in vitro antimalarial potency relative to artemisinin ([2]; P. falciparum NF54): more potent than artemisinin | IC50 [2, 6]: 4.2 nM

CCN(CC)CCCC(C)Nc1ccnc2cc(Cl)ccc12 (stereo not drawn) [Chloroquine, reference compound]
ED50 (malaria; sc, read-out: ED50 subcutaneous): 1.8 mg/kg | ED90 (malaria; sc, read-out: ED90 subcutaneous): 3.1 mg/kg
